The record followed here is ChEMBL document CHEMBL6120994, “Unravelling the potential of natural chelating agents in the control of Staphylococcus aureus and Pseudomonas aeruginosa biofilms” (Eur J Med Chem, 2025).

Structures are written as SMILES. Values after ≈ are worked out from the molar mass of the structure shown.

Assay [1] in a line: Metal chelating activity assessed as compound-Fe(III) complex formation by measuring RhB degradation in MgO2/Fe(III) system measured within 30 mins by UV-Visible spectrophotometry.
The subject of assay [2] is Staphylococcus aureus. Kind of assay: Bactericidal activity against Staphylococcus aureus CECT 976 assessed as bacterial killing incubated in MHB for 24 hrs and measured following culturing on agar plate for 24 hrs. The settings on record: time 48 hrs. The class given is functional.
For assay [3], the system named is Pseudomonas aeruginosa. Kind of assay: Antibacterial activity against Pseudomonas aeruginosa ATCC 10145 assessed as inhibition of bacterial growth incubated for 24 hrs by broth microdilution method. It is filed as functional. In general terms: In broth dilution the organism is exposed to a series of concentrations in liquid medium.
Assay [4] deals with Pseudomonas aeruginosa. The assay can be described thus: Bactericidal activity against Pseudomonas aeruginosa ATCC 10145 assessed as bacterial killing incubated in MHB for 24 hrs and measured following culturing on agar plate for 24 hrs. The class given is functional. The following applies: time 48 hrs.
In assay [5] the test system is Staphylococcus aureus. Kind of assay: Antibacterial activity against Staphylococcus aureus CECT 976 assessed as inhibition of bacterial growth incubated for 24 hrs by broth microdilution method. The class given is functional.

The term MBC denotes the smallest concentration meeting the test's criterion for killing. The MIC is the lowest concentration found to suppress growth.

Turning to `O=C(O)CC(O)(CC(=O)O)C(=O)O`, the Activity in assay [1] was found to be 42.3%.

With `O=C(O)C(=O)O`, the Activity in assay [1] worked out at 48.9%.

As for `O=C(O)[C@@H](O)[C@H](O)C(=O)O`, the Activity in assay [1] turned out to be 98.5%.

Turning to `O=C(O)c1cn(C2CC2)c2cc(N3CCNCC3)c(F)cc2c1=O` [CIPROFLOXACIN], the MBC in the assay on Staphylococcus aureus [2] came to 8 µg/mL (≈ 24.1 µM); in the assay on Pseudomonas aeruginosa [4] it was 32 µg/mL (≈ 96.6 µM). For the same compound, the MIC with Pseudomonas aeruginosa [3] stood at 32 µg/mL (≈ 96.6 µM).

For the compound `O=C(O)CN(CCN(CC(=O)O)CC(=O)O)CC(=O)O`, the Activity in assay [1] was 25.8%.

As to `NC[C@H]1O[C@H](O[C@H]2[C@H](O)[C@@H](O[C@H]3O[C@H](CO)[C@@H](O)[C@H](N)[C@H]3O)[C@H](N)C[C@@H]2N)[C@H](N)C[C@@H]1O` [TOBRAMYCIN], the MIC with Staphylococcus aureus [5] came out at 4 µg/mL (≈ 8.56 µM); in the assay with Pseudomonas aeruginosa [3], 8 µg/mL (≈ 17.1 µM). In addition, the MBC in the assay with Staphylococcus aureus [2] was found to be 4 µg/mL (≈ 8.56 µM); in the assay on Pseudomonas aeruginosa [4], 16 µg/mL (≈ 34.2 µM).
